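In this assay, cells in 96-well plates receive the compound at five concentrations for 48 hours. Endpoints are linearly interpolated between the surrounding concentrations. TGI is the concentration that stops growth completely.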
Experiments:
Test in all cases: growth of human tumour cells (NCI), 48 h
OVCAR-8 ovarian = system: OVCAR-8 ovarian
DMS 114 small cell lung = system: DMS 114 small cell lung
SNB-19 CNS = system: SNB-19 CNS
KM12 colon = system: KM12 colon
U251 CNS = system: U251 CNS
786-0 renal = system: 786-0 renal
SR leukemia = system: SR leukemia
IGROV1 ovarian = system: IGROV1 ovarian
RPMI-8226 leukemia = system: RPMI-8226 leukemia
RXF 393 renal = system: RXF 393 renal
EKVX NSCLC = system: EKVX NSCLC
CAKI-1 renal = system: CAKI-1 renal
HOP-92 NSCLC = system: HOP-92 NSCLC
SN12C renal = system: SN12C renal
K-562 leukemia = system: K-562 leukemia
NCI-H226 lung = system: NCI-H226 lung
HL-60(TB) leukemia = system: HL-60(TB) leukemia
DLD-1 colon = system: DLD-1 colon
NCI-H460 lung = system: NCI-H460 lung
HCC-2998 colon = system: HCC-2998 colon
OVCAR-4 ovarian = system: OVCAR-4 ovarian
MOLT-4 leukemia = system: MOLT-4 leukemia
COLO 205 colon = system: COLO 205 colon
UACC-62 melanoma = system: UACC-62 melanoma
HT29 colon = system: HT29 colon
SK-MEL-2 melanoma = system: SK-MEL-2 melanoma
HOP-18 NSCLC = system: HOP-18 NSCLC
M19-MEL melanoma = system: M19-MEL melanoma
NCI-H522 lung = system: NCI-H522 lung
SW-620 colon = system: SW-620 colon
LXFL 529 NSCLC = system: LXFL 529 NSCLC
OVCAR-3 ovarian = system: OVCAR-3 ovarian
TK-10 renal = system: TK-10 renal
HOP-62 NSCLC = system: HOP-62 NSCLC
KM20L2 colon = system: KM20L2 colon
OVCAR-5 ovarian = system: OVCAR-5 ovarian
UO-31 renal = system: UO-31 renal
SF-268 CNS = system: SF-268 CNS
LOX IMVI melanoma = system: LOX IMVI melanoma
ACHN renal = system: ACHN renal
SNB-78 CNS = system: SNB-78 CNS
SK-MEL-5 melanoma = system: SK-MEL-5 melanoma
HCT-116 colon = system: HCT-116 colon
SF-539 CNS = system: SF-539 CNS
HCT-15 colon = system: HCT-15 colon
M14 melanoma = system: M14 melanoma
A498 renal = system: A498 renal
SF-295 CNS = system: SF-295 CNS
SK-MEL-28 melanoma = system: SK-MEL-28 melanoma
NCI-H23 lung = system: NCI-H23 lung
CCRF-CEM leukemia = system: CCRF-CEM leukemia
UACC-257 melanoma = system: UACC-257 melanoma
A549 NSCLC = system: A549 NSCLC
MALME-3M melanoma = system: MALME-3M melanoma
SK-OV-3 ovarian = system: SK-OV-3 ovarian
RXF-631 renal = system: RXF-631 renal
DMS 273 small cell lung = system: DMS 273 small cell lung
SNB-75 CNS = system: SNB-75 CNS

Cc1c(Cl)ccc2c1NC(=O)C2(O)C1Cc2ccccc2C1=O (stereo unspecified)
TGI (OVCAR-8 ovarian): > 100 µM
TGI (DMS 114 small cell lung): > 100 µM
TGI (SNB-19 CNS): > 100 µM
TGI (KM12 colon): > 100 µM
TGI (U251 CNS): > 100 µM
TGI (786-0 renal): > 100 µM
TGI (SR leukemia): > 100 µM
TGI (IGROV1 ovarian): > 100 µM
TGI (RPMI-8226 leukemia): > 100 µM
TGI (RXF 393 renal): > 100 µM
TGI (EKVX NSCLC): > 100 µM
TGI (CAKI-1 renal): > 100 µM
TGI (HOP-92 NSCLC): > 100 µM
TGI (SN12C renal): > 100 µM
TGI (K-562 leukemia): > 100 µM
TGI (NCI-H226 lung): > 100 µM
TGI (HL-60(TB) leukemia): 65.4 µM
TGI (DLD-1 colon): > 100 µM
TGI (NCI-H460 lung): > 100 µM
TGI (HCC-2998 colon): > 100 µM
TGI (OVCAR-4 ovarian): > 100 µM
TGI (MOLT-4 leukemia): > 100 µM
TGI (COLO 205 colon): > 100 µM
TGI (UACC-62 melanoma): > 100 µM
TGI (HT29 colon): > 100 µM
TGI (SK-MEL-2 melanoma): > 100 µM
TGI (HOP-18 NSCLC): > 100 µM
TGI (M19-MEL melanoma): > 100 µM
TGI (NCI-H522 lung): > 100 µM
TGI (SW-620 colon): > 100 µM
TGI (LXFL 529 NSCLC): > 100 µM
TGI (OVCAR-3 ovarian): > 100 µM
TGI (TK-10 renal): > 100 µM
TGI (HOP-62 NSCLC): > 100 µM
TGI (KM20L2 colon): > 100 µM
TGI (OVCAR-5 ovarian): > 100 µM
TGI (UO-31 renal): > 100 µM
TGI (SF-268 CNS): > 100 µM
TGI (LOX IMVI melanoma): > 100 µM
TGI (ACHN renal): > 100 µM
TGI (SNB-78 CNS): > 100 µM
TGI (SK-MEL-5 melanoma): > 100 µM
TGI (HCT-116 colon): > 100 µM
TGI (SF-539 CNS): > 100 µM
TGI (HCT-15 colon): > 100 µM
TGI (M14 melanoma): > 100 µM
TGI (A498 renal): > 100 µM
TGI (SF-295 CNS): > 100 µM
TGI (SK-MEL-28 melanoma): > 100 µM
TGI (NCI-H23 lung): > 100 µM
TGI (CCRF-CEM leukemia): > 100 µM
TGI (UACC-257 melanoma): > 100 µM
TGI (A549 NSCLC): > 100 µM
TGI (MALME-3M melanoma): > 100 µM
TGI (SK-OV-3 ovarian): > 100 µM

COc1cc([C@H]2Oc3cc(O)c4c(=O)cc(-c5ccc(O)cc5)oc4c3O[C@@H]2CO)ccc1O
TGI (RXF-631 renal): 24.1 µM
TGI (DMS 273 small cell lung): 31.8 µM
TGI (DMS 114 small cell lung): 40 µM
TGI (786-0 renal): 29.3 µM
TGI (SR leukemia): 47.8 µM
TGI (IGROV1 ovarian): 59.3 µM
TGI (RPMI-8226 leukemia): 46 µM
TGI (CAKI-1 renal): 44.9 µM
TGI (HOP-92 NSCLC): 60.7 µM
TGI (K-562 leukemia): 83.5 µM
TGI (NCI-H226 lung): 39 µM
TGI (HL-60(TB) leukemia): 53 µM
TGI (DLD-1 colon): 32.3 µM
TGI (NCI-H460 lung): 17.8 µM
TGI (HCC-2998 colon): 28.5 µM
TGI (OVCAR-4 ovarian): 63.2 µM
TGI (MOLT-4 leukemia): 53.9 µM
TGI (COLO 205 colon): 31.7 µM
TGI (UACC-62 melanoma): 34.2 µM
TGI (SNB-75 CNS): 18.5 µM
TGI (SK-MEL-2 melanoma): 30.7 µM
TGI (M19-MEL melanoma): 36.8 µM
TGI (NCI-H522 lung): 18.6 µM
TGI (LXFL 529 NSCLC): 29.2 µM
TGI (HOP-62 NSCLC): 33.5 µM
TGI (UO-31 renal): 54.2 µM
TGI (SF-268 CNS): 5.79 µM
TGI (ACHN renal): 63.4 µM
TGI (SNB-78 CNS): 98.1 µM
TGI (HCT-116 colon): 26.4 µM
TGI (M14 melanoma): 34 µM
TGI (A498 renal): 35.2 µM
TGI (SK-MEL-28 melanoma): 28 µM
TGI (NCI-H23 lung): 31.1 µM
TGI (CCRF-CEM leukemia): 44.3 µM
TGI (MALME-3M melanoma): 33.3 µM
TGI (SK-OV-3 ovarian): 36.6 µM

Cc1c(CCl)c(=O)oc2c(C)c3occ(CCl)c(=O)c3cc12
TGI (RXF-631 renal): 31.1 µM
TGI (OVCAR-8 ovarian): > 100 µM
TGI (DMS 114 small cell lung): 41.8 µM
TGI (SNB-19 CNS): 54.7 µM
TGI (KM12 colon): > 100 µM
TGI (U251 CNS): > 100 µM
TGI (786-0 renal): > 100 µM
TGI (IGROV1 ovarian): 40.9 µM
TGI (RPMI-8226 leukemia): 26.8 µM
TGI (RXF 393 renal): 30.9 µM
TGI (EKVX NSCLC): > 100 µM
TGI (SN12C renal): 56.4 µM
TGI (K-562 leukemia): 23.6 µM
TGI (NCI-H226 lung): 48.7 µM
TGI (HL-60(TB) leukemia): 20.2 µM
TGI (NCI-H460 lung): > 100 µM
TGI (HCC-2998 colon): > 100 µM
TGI (MOLT-4 leukemia): 22.8 µM
TGI (COLO 205 colon): 32.9 µM
TGI (UACC-62 melanoma): 30.3 µM
TGI (SNB-75 CNS): 44.8 µM
TGI (SK-MEL-2 melanoma): > 100 µM
TGI (HOP-18 NSCLC): 32 µM
TGI (M19-MEL melanoma): 30.3 µM
TGI (NCI-H522 lung): 30.5 µM
TGI (SW-620 colon): > 100 µM
TGI (LXFL 529 NSCLC): 30.2 µM
TGI (OVCAR-3 ovarian): > 100 µM
TGI (TK-10 renal): > 100 µM
TGI (HOP-62 NSCLC): > 100 µM
TGI (KM20L2 colon): > 100 µM
TGI (OVCAR-5 ovarian): > 100 µM
TGI (UO-31 renal): 31.4 µM
TGI (SF-268 CNS): 71.7 µM
TGI (LOX IMVI melanoma): 30.8 µM
TGI (ACHN renal): > 100 µM
TGI (SK-MEL-5 melanoma): > 100 µM
TGI (SF-539 CNS): 44.9 µM
TGI (HCT-15 colon): 64.6 µM
TGI (M14 melanoma): 37.5 µM
TGI (A498 renal): > 100 µM
TGI (SF-295 CNS): > 100 µM
TGI (SK-MEL-28 melanoma): 35.4 µM
TGI (NCI-H23 lung): 83.7 µM
TGI (CCRF-CEM leukemia): 14.2 µM
TGI (UACC-257 melanoma): > 100 µM
TGI (A549 NSCLC): > 100 µM
TGI (MALME-3M melanoma): > 100 µM
TGI (SK-OV-3 ovarian): > 100 µM

O=S1c2ccc(Cl)cc2CC(SSC2Cc3cc(Cl)ccc3S(=O)c3ccccc32)c2ccccc21 (stereo unspecified)
TGI (RXF-631 renal): > 100 µM
TGI (OVCAR-8 ovarian): > 100 µM
TGI (DMS 273 small cell lung): > 100 µM
TGI (DMS 114 small cell lung): > 100 µM
TGI (SNB-19 CNS): > 100 µM
TGI (KM12 colon): > 100 µM
TGI (U251 CNS): > 100 µM
TGI (786-0 renal): > 100 µM
TGI (IGROV1 ovarian): > 100 µM
TGI (RPMI-8226 leukemia): > 100 µM
TGI (RXF 393 renal): > 100 µM
TGI (EKVX NSCLC): > 100 µM
TGI (CAKI-1 renal): > 100 µM
TGI (HOP-92 NSCLC): > 100 µM
TGI (SN12C renal): > 100 µM
TGI (K-562 leukemia): > 100 µM
TGI (NCI-H226 lung): > 100 µM
TGI (HL-60(TB) leukemia): > 100 µM
TGI (DLD-1 colon): > 100 µM
TGI (NCI-H460 lung): > 100 µM
TGI (HCC-2998 colon): > 100 µM
TGI (OVCAR-4 ovarian): > 100 µM
TGI (MOLT-4 leukemia): > 100 µM
TGI (COLO 205 colon): > 100 µM
TGI (UACC-62 melanoma): > 100 µM
TGI (HT29 colon): > 100 µM
TGI (SNB-75 CNS): > 100 µM
TGI (SK-MEL-2 melanoma): > 100 µM
TGI (HOP-18 NSCLC): > 100 µM
TGI (M19-MEL melanoma): > 100 µM
TGI (NCI-H522 lung): > 100 µM
TGI (SW-620 colon): > 100 µM
TGI (LXFL 529 NSCLC): > 100 µM
TGI (OVCAR-3 ovarian): > 100 µM
TGI (TK-10 renal): > 100 µM
TGI (HOP-62 NSCLC): > 100 µM
TGI (KM20L2 colon): > 100 µM
TGI (OVCAR-5 ovarian): > 100 µM
TGI (UO-31 renal): > 100 µM
TGI (SF-268 CNS): > 100 µM
TGI (LOX IMVI melanoma): > 100 µM
TGI (ACHN renal): > 100 µM
TGI (SNB-78 CNS): > 100 µM
TGI (SK-MEL-5 melanoma): > 100 µM
TGI (HCT-116 colon): > 100 µM
TGI (SF-539 CNS): > 100 µM
TGI (M14 melanoma): > 100 µM
TGI (SF-295 CNS): > 100 µM
TGI (SK-MEL-28 melanoma): > 100 µM
TGI (NCI-H23 lung): > 100 µM
TGI (CCRF-CEM leukemia): > 100 µM
TGI (UACC-257 melanoma): > 100 µM
TGI (A549 NSCLC): > 100 µM
TGI (MALME-3M melanoma): > 100 µM
TGI (SK-OV-3 ovarian): > 100 µM

Source: PubChem BioAssay (NCI)
